Assay results taken from paper PMC10866072, “Design, synthesis, molecular modelling and biological evaluation of novel 6-amino-5-cyano-2-thiopyrimidine derivatives as potent anticancer agents against leukemia and apoptotic inducers” (Journal of Enzyme Inhibition and Medicinal Chemistry, 2024).

Key:
OVCAR-5 = format: cell-based; details: Homo sapiens, one dose 10^-5 M, 48 h
CCRF-CEM = format: cell-based; details: Homo sapiens, one dose 10^-5 M, 48 h
U251 = format: cell-based; details: Homo sapiens, U-251, one dose 10^-5 M, 48 h
HT29 = format: cell-based; details: Homo sapiens, HT-29, one dose 10^-5 M, 48 h
SF-268 = format: cell-based; details: Homo sapiens, one dose 10^-5 M, 48 h, read-out: % growth
SK-OV-3 = format: cell-based; details: Homo sapiens, one dose 10^-5 M, 48 h
OVCAR-3 = format: cell-based; details: Homo sapiens, one dose 10^-5 M, 48 h
T-47D = format: cell-based; details: Homo sapiens, T47D, one dose 10^-5 M, 48 h, read-out: % growth
UACC-257 = format: cell-based; details: Homo sapiens, one dose 10^-5 M, 48 h
M14 = format: cell-based; details: Homo sapiens, one dose 10^-5 M, 48 h
RXF 393 = format: cell-based; details: Homo sapiens, RXF 393, 48 h, one dose 10^-5 M, 48 h, read-out: % growth
NCI-H23 = format: cell-based; details: Homo sapiens, one dose 10^-5 M, 48 h, read-out: % growth
786-0 = format: cell-based; details: Homo sapiens, one dose 10^-5 M, 48 h
K-562 = format: cell-based; details: Homo sapiens, K562, one dose 10^-5 M, 48 h
HS 578T = format: cell-based; details: Homo sapiens; one dose 10^-5 M, 48 h; HS 578T; read-out: % growth
OVCAR-4 = format: cell-based; details: Homo sapiens, one dose 10^-5 M, 48 h
MDA-MB-435 = format: cell-based; details: Homo sapiens, one dose 10^-5 M, 48 h, read-out: % growth
SK-MEL-28 = format: cell-based; details: Homo sapiens, one dose 10^-5 M, 48 h
HL-60(TB) = format: cell-based; details: Homo sapiens, one dose 10^-5 M, 48 h
PC-3 = format: cell-based; details: Homo sapiens, one dose 10^-5 M, 48 h
SR = format: cell-based; details: Homo sapiens, one dose 10^-5 M, 48 h
[1] = tested on: full NCI 60 cell lines panel; details: Homo sapiens, 60 cell, 48 h, read-out: Mean % growth
Experimental: 60 different human tumour cell lines-representing leukaemia, melanoma, and malignancies of the lung, colon, brain, ovary, breast, prostate, and kidney are used in the operation of this screen.
Compounds were dissolved in DMSO: glycerol (91) and were kept in a freezer at −70° C. The synthesised compounds were introduced to the culture at a single concentration of 1 0 ^−5 M and left to incubate for 48 h. A protein-binding dye called sulforhodamine B was used to measure end points (SRB).
A mean graph showing the % growth of treated cells is used to represent the one-dose data. The value provided for the One-dose assay represents growth in comparison to the no-drug control and to the number of cells at time zero. This enables the identification of lethality (values between 0 and 100) as well as growth inhibition (values less than 0). A value of 100, for instance, indicates no growth inhibition. A value of 40 would indicate 60% growth inhibition. A value of 0 indicates no net growth over the course of the experiment. A value of −40 would indicate 40% lethality.
Furthermore, the average sensitivity of all cell lines to the compound is termed as the full panel mean graph midpoints (MG-MID). The complete panel mean graph midpoints refers to the average sensitivity of all cell lines to the chemical (MG-MID). A measure of a compound’s selectivity for a given cell line is the ratio created by dividing the full panel mean graph midpoints (MG-MID) concentration by the individual subpanel MG-MID concentrations (obtained as the average sensitivity of all the cell lines in a given subpanel to the test compound).

MCF7 = format: cell-based; details: Homo sapiens, one dose 10^-5 M, 48 h, read-out: % growth
HCT-116 = format: cell-based; details: Homo sapiens, one dose 10^-5 M, 48 h, read-out: % growth
A549/ATCC = format: cell-based; details: Homo sapiens, one dose 10^-5 M, 48 h
NCI-H226 = format: cell-based; details: Homo sapiens, one dose 10^-5 M, 48 h
SNB-19 = format: cell-based; details: Homo sapiens, one dose 10^-5 M, 48 h, read-out: % growth
SW-620 = format: cell-based; details: Homo sapiens, one dose 10^-5 M, 48 h
OVCAR-8 = format: cell-based; details: Homo sapiens, one dose 10^-5 M, 48 h
RPMI-8226 = format: cell-based; details: Homo sapiens, one dose 10^-5 M, 48 h
SF-539 = format: cell-based; details: Homo sapiens, one dose 10^-5 M, 48 h
MDA-MB-231/ATCC = format: cell-based; details: one dose 10^-5 M, 48 h; for % growth at 10 µM: Homo sapiens
KM12 = format: cell-based; details: Homo sapiens, one dose 10^-5 M, 48 h
SN12C = format: cell-based, human; details: Homo sapiens, one dose 10^-5 M, 48 h
MOLT-4 = format: cell-based; details: Homo sapiens, one dose 10^-5 M, 48 h, read-out: % growth
EKVX = format: cell-based; details: Homo sapiens, one dose 10^-5 M, 48 h
TK-10 = format: cell-based; details: Homo sapiens, one dose 10^-5 M, 48 h
UO-31 = format: cell-based; details: Homo sapiens, UO-31, 48 h, one dose 10^-5 M, 48 h
DU-145 = format: cell-based; details: Homo sapiens, one dose 10^-5 M, 48 h
A498 = format: cell-based; details: Homo sapiens, one dose 10^-5 M, 48 h
MDA-MB-468 = format: cell-based; details: Homo sapiens, one dose 10^-5 M, 48 h
LOX IMVI = format: cell-based; details: Homo sapiens, one dose 10^-5 M, 48 h, read-out: % growth
NCI-H522 = format: cell-based; details: Homo sapiens, one dose 10^-5 M, 48 h
SF-295 = format: cell-based; details: Homo sapiens, one dose 10^-5 M, 48 h
SK-MEL-2 = format: cell-based; details: Homo sapiens, one dose 10^-5 M, 48 h
MALME-3M = format: cell-based; details: Homo sapiens, one dose 10^-5 M, 48 h
HOP-62 = format: cell-based; details: Homo sapiens, one dose 10^-5 M, 48 h
SNB-75 = format: cell-based; details: Homo sapiens, one dose 10^-5 M, 48 h
IGROV1 = format: cell-based; details: Homo sapiens, IGROV-1, one dose 10^-5 M, 48 h, read-out: % growth
CAKI-1 = format: cell-based; details: Homo sapiens, CAKI-1, 48 h, one dose 10^-5 M, 48 h
ACHN = format: cell-based; details: Homo sapiens, one dose 10^-5 M, 48 h
SK-MEL-5 = format: cell-based; details: Homo sapiens, one dose 10^-5 M, 48 h, read-out: % growth
UACC-62 = format: cell-based; details: Homo sapiens, one dose 10^-5 M, 48 h
NCI-H460 = format: cell-based; details: Homo sapiens, one dose 10^-5 M, 48 h, read-out: % growth
HOP-92 = format: cell-based; details: Homo sapiens, one dose 10^-5 M, 48 h
HCT-15 = format: cell-based; details: Homo sapiens, one dose 10^-5 M, 48 h, read-out: % growth
HCC-2998 = format: cell-based; details: Homo sapiens, one dose 10^-5 M, 48 h

N=C(NN=Cc1ccc(Br)cc1)c1c(N)nc(S)nc1-c1ccc(Cl)cc1 [Compound 4k, 4-amino-N'-[(4-bromophenyl)methylene]-6–(4-chlorophenyl)-2-mercapto pyrimidine-5-carboximidohydrazide]
percent cell growth at 10 µM (OVCAR-5): 97% | % cell growth at 10 µM (CCRF-CEM): 43.4% | % growth at 10 µM (U251): 77.1% | % growth at 10 µM (HT29): 102% | activity at 10 µM (SF-268): 90.2% | % growth at 10 µM (SK-OV-3): 78.7% | % growth at 10 µM (OVCAR-3): 101% | activity at 10 µM (T-47D): 54.8% | percent cell growth at 10 µM (UACC-257): 81.4% | % growth at 10 µM (M14): 76.5% | activity at 10 µM (RXF 393): 82.5% | activity at 10 µM (NCI-H23): 71.8% | % growth at 10 µM (786-0): 89.9% | % growth at 10 µM (K-562): 67.8% | activity at 10 µM (HS 578T): 42.6% | % growth at 10 µM (OVCAR-4): 76.7% | activity at 10 µM (MDA-MB-435): 87.8% | % cell growth at 10 µM (SK-MEL-28): 105% | % growth at 10 µM (HL-60(TB)): 119% | percent cell growth at 10 µM (PC-3): 70.5% | percent cell growth at 10 µM (SR): 62.4% | activity at 10 µM [1]: 76.8% | activity at 10 µM (MCF7): 57.5% | activity at 10 µM (HCT-116): 69.6% | % growth at 10 µM (A549/ATCC): 55.3% | % growth at 10 µM (NCI-H226): 98% | activity at 10 µM (SNB-19): 80.4% | % growth at 10 µM (SW-620): 95.6% | % growth of cells at 10 µM (OVCAR-8): 63.7% | % growth at 10 µM (RPMI-8226): 56.8% | % growth at 10 µM (SF-539): 71.2% | % growth at 10 µM (MDA-MB-231/ATCC): -1.21% | % growth (MDA-MB-231/ATCC): -1.21% | % growth at 10 µM (KM12): 76.2% | % growth at 10 µM (SN12C): 87.7% | activity at 10 µM (MOLT-4): 54.6% | % cell growth at 10 µM (EKVX): 66.3% | % cell growth at 10 µM (TK-10): 116% | % cell growth at 10 µM (UO-31): 47.8% | % growth at 10 µM (DU-145): 83.9% | % growth at 10 µM (A498): 88.4% | percent cell growth at 10 µM (MDA-MB-468): 84.6% | activity at 10 µM (LOX IMVI): 92.3% | % growth at 10 µM (NCI-H522): 73.5% | % cell growth at 10 µM (SF-295): 91.2% | % growth at 10 µM (SK-MEL-2): 96% | % growth at 10 µM (MALME-3M): 119% | % growth at 10 µM (HOP-62): 98% | % growth at 10 µM (SNB-75): 35.5% | activity at 10 µM (IGROV1): 68.2% | % growth at 10 µM (CAKI-1): 62.4% | % growth at 10 µM (ACHN): 77.3% | activity at 10 µM (SK-MEL-5): 93.3% | % growth at 10 µM (UACC-62): 82.4% | activity at 10 µM (NCI-H460): 73.4% | % growth at 10 µM (HOP-92): 19% | activity at 10 µM (HCT-15): 73.4% | % growth at 10 µM (HCC-2998): 111%

N=C(NN=Cc1ccc(Cl)cc1Cl)c1c(N)nc(S)nc1-c1ccc(Cl)cc1 [Compound 4l, 4-amino-6–(4-chlorophenyl)-N'-[(2,4-dichlorophenyl)methylene]-2-mercapto pyrimidine-5-carboximidohydrazide]
percent cell growth at 10 µM (OVCAR-5): 73.2% | % cell growth at 10 µM (CCRF-CEM): 64.6% | % growth at 10 µM (U251): 93.9% | % growth at 10 µM (HT29): 87% | activity at 10 µM (SF-268): 73.6% | % growth at 10 µM (SK-OV-3): 82.1% | % growth at 10 µM (OVCAR-3): 80.2% | activity at 10 µM (T-47D): 28.1% | percent cell growth at 10 µM (UACC-257): 96.5% | % growth at 10 µM (M14): 76.2% | activity at 10 µM (RXF 393): 31.2% | activity at 10 µM (NCI-H23): 78.3% | % growth at 10 µM (786-0): 88.6% | % growth at 10 µM (K-562): 77.1% | activity at 10 µM (HS 578T): 36.4% | % growth at 10 µM (OVCAR-4): 79.2% | activity at 10 µM (MDA-MB-435): 89% | % cell growth at 10 µM (SK-MEL-28): 75.8% | % growth at 10 µM (HL-60(TB)): 101% | percent cell growth at 10 µM (PC-3): 48% | percent cell growth at 10 µM (SR): 65.6% | activity at 10 µM [1]: 68.3% | activity at 10 µM (MCF7): 53.1% | activity at 10 µM (HCT-116): 84.2% | % growth at 10 µM (A549/ATCC): 90.7% | % growth at 10 µM (NCI-H226): 62.4% | activity at 10 µM (SNB-19): 84% | % growth at 10 µM (SW-620): 95.8% | % growth of cells at 10 µM (OVCAR-8): 90% | % growth at 10 µM (RPMI-8226): 46.5% | % growth at 10 µM (SF-539): 70.3% | % growth at 10 µM (MDA-MB-231/ATCC): 52.7% | % growth at 10 µM (KM12): 79.8% | % growth at 10 µM (SN12C): 65.5% | activity at 10 µM (MOLT-4): 66.4% | % cell growth at 10 µM (EKVX): 59% | % cell growth at 10 µM (TK-10): 98.8% | % cell growth at 10 µM (UO-31): 43.2% | % growth at 10 µM (DU-145): 79.3% | % growth at 10 µM (A498): 6.77% | percent cell growth at 10 µM (MDA-MB-468): 88.4% | activity at 10 µM (LOX IMVI): 69.4% | % growth at 10 µM (NCI-H522): 62.3% | % cell growth at 10 µM (SF-295): 85% | % growth at 10 µM (SK-MEL-2): 83.3% | % growth at 10 µM (MALME-3M): 43.4% | % growth at 10 µM (HOP-62): 53% | % growth at 10 µM (SNB-75): 26.1% | activity at 10 µM (IGROV1): 44.9% | % growth at 10 µM (CAKI-1): 37% | % growth at 10 µM (ACHN): 53.2% | activity at 10 µM (SK-MEL-5): 81% | % growth at 10 µM (UACC-62): 43.1% | activity at 10 µM (NCI-H460): 66.3% | % growth at 10 µM (HOP-92): 54.9% | activity at 10 µM (HCT-15): 77.4% | % growth at 10 µM (HCC-2998): 95%
